3 molecules from ChEMBL document CHEMBL1129473, “Slow-binding inhibition of gamma-aminobutyric acid aminotransferase by hydrazine analogues” (J Med Chem, 1996) can be followed below.

Where a name gives a salt, the structure may show the parent alone.

The target of assay [1] is T1, 4-aminobutyrate aminotransferase, mitochondrial (Sus scrofa, UniProt P80147). The assay is described as follows: The Dissociation Constant for Gamma-amino-N-butyrate transaminase.
The target of assay [2] is 4-aminobutyrate aminotransferase, mitochondrial (Sus scrofa) (UniProt P80147). The assay is described as follows: The Reactivation Kinetic Constant for Gamma-amino-N-butyrate transaminase.
Assay [3] shares this target. Kind of assay: Inhibitory rate constant against Gamma-amino-N-butyrate transaminase.
For assay [4] the target is unchanged. Kind of assay: Dissociation constant of the Gamma-amino-N-butyrate transaminase.
In assay [5] the target is T1, 4-aminobutyrate aminotransferase, mitochondrial. Kind of assay: Inhibitory activity against Gamma-amino-N-butyrate transaminase.

T1 sequence (P80147 whole entry): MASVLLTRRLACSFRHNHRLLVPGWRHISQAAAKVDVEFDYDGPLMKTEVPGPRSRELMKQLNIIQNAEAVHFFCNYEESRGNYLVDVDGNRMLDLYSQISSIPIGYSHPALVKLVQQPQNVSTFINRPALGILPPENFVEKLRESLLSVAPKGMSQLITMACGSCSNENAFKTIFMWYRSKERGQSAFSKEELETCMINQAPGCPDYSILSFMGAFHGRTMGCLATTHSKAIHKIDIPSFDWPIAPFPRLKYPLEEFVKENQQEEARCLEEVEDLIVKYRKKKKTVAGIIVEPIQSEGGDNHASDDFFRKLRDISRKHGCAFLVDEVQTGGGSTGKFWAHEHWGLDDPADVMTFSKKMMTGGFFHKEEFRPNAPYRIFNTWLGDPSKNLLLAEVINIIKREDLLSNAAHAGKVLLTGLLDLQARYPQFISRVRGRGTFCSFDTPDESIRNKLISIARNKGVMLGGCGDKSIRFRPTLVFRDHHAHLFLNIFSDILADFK
Sequence of 4-aminobutyrate aminotransferase, mitochondrial (Sus scrofa) (P80147 whole entry): as above

For orientation: Kd means the constant that tells how readily two partners part at equilibrium. Read a low Kd as a tighter complex. `NNCCC(=O)O`: the Kd in assay [1] is below 0.02 µM. The Kreact in assay [2] was determined as 0.0069 min⁻¹.

The Ki is the dissociation constant of the complex between target and ligand, obtained from inhibition or displacement. For `CNN` [METHYLHYDRAZINE], the K3 in assay [3] came to 34.7 M⁻¹ s⁻¹. In assay [4], this molecule displayed a K4 of 0.0046 min⁻¹. In assay [1], this molecule displayed a Kd of 2.8 µM. In assay [5], this molecule gave an inhibition constant Ki of 2.2 µM. The molecule also showed a Kreact in assay [2] of 4 min⁻¹.

On to `NNCc1cccc(O)c1` [3-HYDROXYBENZYLHYDRAZINE DIHYDROCHLORIDE], for which the K3 in assay [3] was 330 M⁻¹ s⁻¹. The K4 in assay [4] was determined as 0.005 min⁻¹. In assay [1], this molecule yielded a dissociation constant (Kd) of 0.46 µM. For the same molecule, the inhibition constant Ki in assay [5] stood at 0.3 µM. In assay [2], this molecule came in with a Kreact of 0.02 min⁻¹.
